# Source: US20070049564A1 (Wyeth, priority 2005, published 2007)
# Read-outs that look alike come from different tables or passages of the source.
# What was measured:
# E. coli GC 2232 = assay: MIC, broth microdilution; conditions: Escherichia coli
# E. coli GC 2270 = assay: MIC, broth microdilution; conditions: Escherichia coli
# Protocol: (§1) Antimicrobial susceptibility testing. The in vitro activities of the antibiotics are determined by the broth microdilution method as recommended by the National Committee for Clinical Laboratory Standards (NCCLS) (1). Mueller-Hinton II broth (MHBII)(BBL Cockeysville, Md.) is the medium employed in the testing procedures. Microtiter plates containing serial dilutions of each antimicrobial agent are inoculated with each organism to yield the appropriate density (10^5 CFU/ml) in a 100 μl final volume. The plates are incubated for 18-22 hours at 35° C. in ambient air.
# (§2) Representative compounds were first incubated in mouse serum for an hour prior to the in vitro testing against a panel of selected gram-positive and gram-negative bacteria strains. All compounds were also pre-incubated in water for an hour prior to testing as control. Representative compounds of Formula I were incubated in human serum prior to MIC determination.
# E. coli GC 2271 = assay: MIC, broth microdilution; conditions: Escherichia coli
# E. coli GC 4559 = assay: MIC, broth microdilution; conditions: Escherichia coli
# E. coli GC 3226 = assay: MIC, broth microdilution; conditions: Escherichia coli
# E. coli GC 1073 = assay: MIC, broth microdilution; conditions: Escherichia coli
# P. aeruginosa GC 2214 = assay: MIC, broth microdilution; conditions: Pseudomonas aeruginosa
# S. aureus GC 4536 = assay: MIC, broth microdilution; conditions: Staphylococcus aureus
# Protocol: as §1, §2
# S. aureus GC 2216 = assay: MIC, broth microdilution; conditions: Staphylococcus aureus
# Protocol: Antimicrobial susceptibility testing. The in vitro activities of the antibiotics are determined by the broth microdilution method as recommended by the National Committee for Clinical Laboratory Standards (NCCLS) (1). Mueller-Hinton II broth (MHBII)(BBL Cockeysville, Md.) is the medium employed in the testing procedures. Microtiter plates containing serial dilutions of each antimicrobial agent are inoculated with each organism to yield the appropriate density (10^5 CFU/ml) in a 100 μl final volume. The plates are incubated for 18-22 hours at 35° C. in ambient air. […] Standard Pharmacological Test Procedures
# Presented in Tables I-XIII are representative compounds of Formula I which were evaluated against a panel of 40 selected gram-positive and gram-negative bacteria strains by pre-incubation in water, mouse serum or human serum. Representative compounds were first incubated in mouse serum for an hour prior to the in vitro testing against a panel of selected gram-positive and gram-negative bacteria strains. All compounds were also pre-incubated in water for an hour prior to testing as control. Representative compounds of Formula I were incubated in human serum prior to MIC determination.
# S. aureus GC 6335 = assay: MIC, broth microdilution; conditions: Staphylococcus aureus
# S. aureus GC 6469 = assay: MIC, broth microdilution; conditions: Staphylococcus aureus
# E. faecalis GC 2265 = assay: MIC, broth microdilution; conditions: Enterococcus faecalis
# E. faecalis GC 2242 = assay: MIC, broth microdilution; conditions: Enterococcus faecalis
# Protocol: as §1, §2
# E. faecium GC 2243 = assay: MIC, broth microdilution; conditions: Enterococcus faecium
# S. pneumoniae+ GC 4465 = assay: MIC, broth microdilution; conditions: Streptococcus pneumoniae
# S. pyogenes GC 4563 = assay: MIC, broth microdilution; conditions: Streptococcus pyogenes
# S. agalactiae GC 4564 = assay: MIC, broth microdilution; conditions: Streptococcus agalactiae
# c. albicans GC 3066 = assay: MIC, broth microdilution; conditions: for MIC: Candida albicans, GC3066, read-out: MINIMAL INHIBITORY CONCENTRATION MIC; for MINIMAL INHIBITORY CONCENTRATION MIC: pre-incubated in Water
# E. coli = assay: Range of MIC for E. coli strains; conditions: Escherichia coli
# Staph. aureus Smith = assay: In vivo activity (oral, iv; ED50) against Staph. aureus Smith in mice
# Protocol: Representative examples of compounds of Formula I were tested for the oral efficacy using S. aureus Smith in mice.
# [1] = GC2232, read-out: MINIMAL INHIBITORY CONCENTRATION MIC, pre-incubated in Mouse Serum
# [2] = GC2232, read-out: MINIMAL INHIBITORY CONCENTRATION MIC, pre-incubated in Water
# [3] = GC2270, read-out: MINIMAL INHIBITORY CONCENTRATION MIC, pre-incubated in Mouse Serum
# [4] = GC2270, read-out: MINIMAL INHIBITORY CONCENTRATION MIC, pre-incubated in Water
# [5] = GC2271, read-out: MINIMAL INHIBITORY CONCENTRATION MIC, pre-incubated in Mouse Serum
# [6] = GC2271, read-out: MINIMAL INHIBITORY CONCENTRATION MIC, pre-incubated in Water
# [7] = GC4559, read-out: MINIMAL INHIBITORY CONCENTRATION MIC, pre-incubated in Mouse Serum
# [8] = GC4559, read-out: MINIMAL INHIBITORY CONCENTRATION MIC, pre-incubated in Water
# [9] = GC3226, read-out: MINIMAL INHIBITORY CONCENTRATION MIC, pre-incubated in Mouse Serum
# [10] = GC3226, read-out: MINIMAL INHIBITORY CONCENTRATION MIC, pre-incubated in Water
# [11] = GC1073, read-out: MINIMAL INHIBITORY CONCENTRATION MIC, pre-incubated in Mouse Serum
# [12] = GC1073, read-out: MINIMAL INHIBITORY CONCENTRATION MIC, pre-incubated in Water
# [13] = GC2214, read-out: MINIMAL INHIBITORY CONCENTRATION MIC, pre-incubated in Mouse Serum
# [14] = GC2214, read-out: MINIMAL INHIBITORY CONCENTRATION MIC, pre-incubated in Water
# [15] = GC4536, read-out: MINIMAL INHIBITORY CONCENTRATION MIC, pre-incubated in Mouse Serum
# [16] = GC4536, read-out: MINIMAL INHIBITORY CONCENTRATION MIC, pre-incubated in Water
# [17] = GC2216, read-out: MINIMAL INHIBITORY CONCENTRATION MIC, pre-incubated in Mouse Serum
# [18] = GC2216, read-out: MINIMAL INHIBITORY CONCENTRATION MIC, pre-incubated in Water
# [19] = GC6335, read-out: MINIMAL INHIBITORY CONCENTRATION MIC, pre-incubated in Mouse Serum
# [20] = GC6335, read-out: MINIMAL INHIBITORY CONCENTRATION MIC, pre-incubated in Water
# [21] = GC6469, read-out: MINIMAL INHIBITORY CONCENTRATION MIC, pre-incubated in Mouse Serum
# [22] = GC6469, read-out: MINIMAL INHIBITORY CONCENTRATION MIC, pre-incubated in Water
# [23] = GC2265, read-out: MINIMAL INHIBITORY CONCENTRATION MIC, pre-incubated in Mouse Serum
# [24] = GC2265, read-out: MINIMAL INHIBITORY CONCENTRATION MIC, pre-incubated in Water
# [25] = GC2242, read-out: MINIMAL INHIBITORY CONCENTRATION MIC, pre-incubated in Mouse Serum
# [26] = GC2242, read-out: MINIMAL INHIBITORY CONCENTRATION MIC, pre-incubated in Water
# [27] = GC2243, read-out: MINIMAL INHIBITORY CONCENTRATION MIC, pre-incubated in Mouse Serum
# [28] = GC2243, read-out: MINIMAL INHIBITORY CONCENTRATION MIC, pre-incubated in Water
# [29] = read-out: MINIMAL INHIBITORY CONCENTRATION MIC, pre-incubated in Mouse Serum
# [30] = read-out: MINIMAL INHIBITORY CONCENTRATION MIC, pre-incubated in Water
# [31] = GC4563, read-out: MINIMAL INHIBITORY CONCENTRATION MIC, pre-incubated in Mouse Serum
# [32] = GC4563, read-out: MINIMAL INHIBITORY CONCENTRATION MIC, pre-incubated in Water
# [33] = GC4564, read-out: MINIMAL INHIBITORY CONCENTRATION MIC, pre-incubated in Mouse Serum
# [34] = GC4564, read-out: MINIMAL INHIBITORY CONCENTRATION MIC, pre-incubated in Water
# [35] = 20 h, read-out: Range of MIC, E. coli (Mouse Serum)
# [36] = read-out: Range of MIC, E. coli (mouse serum)
# [37] = Staphylococcus aureus, in Mus musculus, po, read-out: ED50 Staph Smith SOD
# [38] = iv, read-out: ED50 Staph Smith SIV
smiles,measurement,setting,value
"CCCN(CC(=O)Nc1cc(N(C)C)c2c(c1O)C(=O)C1=C(O)[C@]3(O)C(=O)C(C(N)=O)=C(O)[C@@H](N(C)C)[C@@H]3C[C@@H]1C2)C(=O)OCOC(=O)c1cccs1 [Example 25, ({[(2-{[(5aR,6aS,7S,10aS)-9-(aminocarbonyl)-4,7-bis(dimethylamino)-1,8,10a,11-tetrahydroxy-10,12-dioxo-5,5a,6,6a,7,10,10a,12-octahydrotetracen-2-yl]amino}-2-oxoethyl)(propyl)amino]carbonyl}oxy)methyl thiophene-2-carboxylate]",MIC,E. coli GC 2232; [1],1 µg/mL
same,MIC,E. coli GC 2232; [2],> 64 µg/mL
same,MIC,E. coli GC 2270; [3],1 µg/mL
same,MIC,E. coli GC 2270; [4],> 64 µg/mL
same,MIC,E. coli GC 2271; [5],1 µg/mL
same,MIC,E. coli GC 2271; [6],32 µg/mL
same,MIC,E. coli GC 4559; [7],2 µg/mL
same,MIC,E. coli GC 4559; [8],> 64 µg/mL
same,MIC,E. coli GC 3226; [9],2 µg/mL
same,MIC,E. coli GC 3226; [10],> 64 µg/mL
same,MIC,E. coli GC 1073; [11],2 µg/mL
same,MIC,E. coli GC 1073; [12],> 64 µg/mL
same,MIC,P. aeruginosa GC 2214; [13],32 µg/mL
same,MIC,P. aeruginosa GC 2214; [14],> 64 µg/mL
same,MIC,S. aureus GC 4536; [15],0.5 µg/mL
same,MIC,S. aureus GC 4536; [16],0.5 µg/mL
same,MIC,S. aureus GC 2216; [17],0.5 µg/mL
same,MIC,S. aureus GC 2216; [18],1 µg/mL
same,MIC,S. aureus GC 6335; [19],0.5 µg/mL
same,MIC,S. aureus GC 6335; [20],0.5 µg/mL
same,MIC,S. aureus GC 6469; [21],2 µg/mL
same,MIC,S. aureus GC 6469; [22],4 µg/mL
same,MIC,E. faecalis GC 2265; [23],2 µg/mL
same,MIC,E. faecalis GC 2265; [24],2 µg/mL
same,MIC,E. faecalis GC 2242; [25],2 µg/mL
same,MIC,E. faecalis GC 2242; [26],2 µg/mL
same,MIC,E. faecium GC 2243; [27],0.5 µg/mL
same,MIC,E. faecium GC 2243; [28],1 µg/mL
same,MIC,S. pneumoniae+ GC 4465; [29],4 µg/mL
same,MIC,S. pneumoniae+ GC 4465; [30],4 µg/mL
same,MIC,S. pyogenes GC 4563; [31],0.12 µg/mL
same,MIC,S. pyogenes GC 4563; [32],0.25 µg/mL
same,MIC,S. agalactiae GC 4564; [33],0.5 µg/mL
same,MIC,S. agalactiae GC 4564; [34],0.5 µg/mL
same,MIC,c. albicans GC 3066,> 64 µg/mL
same,MINIMAL INHIBITORY CONCENTRATION MIC,c. albicans GC 3066,>64 UG/ML
same,MIC,E. coli; [35],1 to 2 µg/mL
same,MIC,E. coli; [36],1 to 2 µg/mL
same,ED50,Staph. aureus Smith; [37],15.7 mg/kg
same,ED50,Staph. aureus Smith; [38],0.56 mg/kg
"CCCN(CC(=O)Nc1cc(N(C)C)c2c(c1O)C(=O)C1=C(O)[C@]3(O)C(=O)C(C(N)=O)=C(O)[C@@H](N(C)C)[C@@H]3C[C@@H]1C2)C(=O)OCOC(=O)c1cc(C)cc(C)c1 [Example 26, ({[(2-{[(5aR,6aS,7S,10aS)-9-(aminocarbonyl)-4,7-bis(dimethylamino)-1,8,10a,11-tetrahydroxy-10,12-dioxo-5,5a,6,6a,7,10,10a,12-octahydrotetracen-2-yl]amino}-2-oxoethyl)(propyl)amino]carbonyl}oxy)methyl 3,5-dimethylbenzoate]",MIC,E. coli GC 2232; [1],1 µg/mL
same,MIC,E. coli GC 2232; [2],> 64 µg/mL
same,MIC,E. coli GC 2270; [3],1 µg/mL
same,MIC,E. coli GC 2270; [4],> 64 µg/mL
same,MIC,E. coli GC 2271; [5],1 µg/mL
same,MIC,E. coli GC 2271; [6],> 64 µg/mL
same,MIC,E. coli GC 4559; [7],2 µg/mL
same,MIC,E. coli GC 4559; [8],> 64 µg/mL
same,MIC,E. coli GC 3226; [9],2 µg/mL
same,MIC,E. coli GC 3226; [10],> 64 µg/mL
same,MIC,E. coli GC 1073; [11],2 µg/mL
same,MIC,E. coli GC 1073; [12],> 64 µg/mL
same,MIC,P. aeruginosa GC 2214; [13],32 µg/mL
same,MIC,P. aeruginosa GC 2214; [14],> 64 µg/mL
same,MIC,S. aureus GC 4536; [15],0.25 µg/mL
same,MIC,S. aureus GC 4536; [16],0.5 µg/mL
same,MIC,S. aureus GC 2216; [17],0.5 µg/mL
same,MIC,S. aureus GC 2216; [18],0.5 µg/mL
same,MIC,S. aureus GC 6335; [19],0.5 µg/mL
same,MIC,S. aureus GC 6335; [20],1 µg/mL
same,MIC,S. aureus GC 6469; [21],1 µg/mL
same,MIC,S. aureus GC 6469; [22],2 µg/mL
same,MIC,E. faecalis GC 2265; [23],2 µg/mL
same,MIC,E. faecalis GC 2265; [24],8 µg/mL
same,MIC,E. faecalis GC 2242; [25],2 µg/mL
same,MIC,E. faecalis GC 2242; [26],4 µg/mL
same,MIC,E. faecium GC 2243; [27],1 µg/mL
same,MIC,E. faecium GC 2243; [28],2 µg/mL
same,MIC,S. pneumoniae+ GC 4465; [29],4 µg/mL
same,MIC,S. pneumoniae+ GC 4465; [30],4 µg/mL
same,MIC,S. pyogenes GC 4563; [31],0.25 µg/mL
same,MIC,S. pyogenes GC 4563; [32],0.25 µg/mL
same,MIC,S. agalactiae GC 4564; [33],1 µg/mL
same,MIC,S. agalactiae GC 4564; [34],2 µg/mL
same,MIC,c. albicans GC 3066,> 64 µg/mL
same,MINIMAL INHIBITORY CONCENTRATION MIC,c. albicans GC 3066,>64 UG/ML
same,MIC,E. coli; [35],1 to 4 µg/mL
same,MIC,E. coli; [36],1 to 4 µg/mL
same,ED50,"Staph. aureus Smith; Staphylococcus aureus, in Mus musculus, iv, read-out: ED50 SIV (Staph aureus Smith)",0.43 mg/kg
same,ED50,"Staph. aureus Smith; Staphylococcus aureus, in Mus musculus, po, read-out: ED50 SOD (Staph aureus Smith)",8.79 mg/kg
same,ED50,Staph. aureus Smith; [37],8.79 mg/kg
same,ED50,Staph. aureus Smith; [38],0.43 mg/kg
